Measured values reported in article PMC5614581, “Investigating cyclic nucleotide and cyclic dinucleotide binding to HCN channels by surface plasmon resonance” (PLoS ONE, 2017).
Substitutions are numbered along the chain they refer to. Entries after “also recorded” stand apart in the source; their conditions may differ. Where two headings read alike, the source gives them in different places.

Columns and labels:
[1] = test system: full-length hHCN4 channels; details: cited from earlier work; for effect on cyclic nucleotide modulation of the channel: in the presence of cyclic nucleotides
[2] = molecular target: T1, C-linker/CNBD of human HCN4 (hHCN4, residues 521–723) (Homo sapiens, UniProt Q9Y3Q4); experiment: SPR, immobilized hHCN4 C-linker/CNBD on NTA chip; details: for SPR binding response: analyte alone (no added cAMP), 300 μM or range up to 300 μM; for SPR binding response in the presence of cAMP: in the presence of 100 μM cAMP, analyte 300 μM or range up to 300 μM
T1 sequence (Q9Y3Q4 521-723): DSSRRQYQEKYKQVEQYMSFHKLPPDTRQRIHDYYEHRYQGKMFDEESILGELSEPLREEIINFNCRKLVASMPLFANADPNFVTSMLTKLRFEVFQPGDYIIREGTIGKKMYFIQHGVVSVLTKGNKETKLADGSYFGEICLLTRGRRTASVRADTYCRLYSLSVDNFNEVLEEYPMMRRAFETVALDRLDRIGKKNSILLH
Protocol: (§1) SPR experiments were performed at 25 °C on a Biacore 4000 Instrument (GE Healthcare). C-linker/CNBDs of wild-type and L586W mutant mHCN2, and hHCN4 channels were immobilized on a NTA chip (GE Healthcare), as previously described [31, 32]. Immobilizations of the proteins were performed in HBS-P buffer (150 mM NaCl, 10 mM HEPES, 0.05% (v/v) surfactant P20, pH 7.4). First the NTA sensor surface was activated with a 1 min injection of 0.5 M NiCl2. The coupling of the Ni^2+-NTA chip surface groups with the 6-His-tagged proteins was then achieved by 2.5 min injections of the proteins at 200 nM concentrations to the chip surface. After the initial capturing, the proteins were covalently cross-linked via 20 s injections of NHS-EDC carboxyl-reactive cross-linkers to prevent protein loss from the chip surface with successive analyte and buffer injections. This was followed by 20 s injection of 1 M ethanolamine to block the remaining reactive sites. The proteins were captured at ~1000–3000 resonance units (RU; 1 RU = 1 pg of protein per mm^2). […] This spot was used as a reference surface to account for a non-specific binding to the chip surface. The binding to the reference surface was subtracted from the binding to the surfaces with immobilized proteins. In addition, the binding corresponding to blank injections (buffer only) was subtracted from the reference subtracted SPR data.
(§2) The binding experiments were performed in the running buffer (150 mM KCl, 10% Glycerol, 1 mM TCEP, 30 mM HEPES, pH 7.5). Analytes over the range of concentrations were injected in triplicates over the chip surface for 60 s at a flow rate of 30 μl /min, followed by buffer only injections. The regeneration of the surface between the analyte injections was not necessary, as the baseline returned to the pre-injection levels. In some experiments we observed a drift in the baseline. […] However, there was minimal residual binding between analyte injections, as indicated by essentially the same binding response for triplicate repeats of analyte injections at the same concentrations.
(§3) Each experiment was repeated on at least three different NTA chips.
(§4) Therefore, concentrations higher than 300 μM were excluded from the analysis. The data analysis and fitting of the plots was performed in Origin (Microcal Software, Inc). Error bars indicate the SEM. […] For each NTA chip an analyte was injected three times. Therefore, each experiment was repeated at least 3xn times. Statistical analysis was performed by using one-way ANOVA. P < 0.05 was considered statistically significant.

[3] = molecular target: T2, C-linker/CNBD of mouse HCN2 (mHCN2, residues 443–645) (Mus musculus, UniProt O88703); experiment: SPR, immobilized mHCN2 C-linker/CNBD on NTA chip; details: for Kd: SPR
T2 sequence (O88703 443-645): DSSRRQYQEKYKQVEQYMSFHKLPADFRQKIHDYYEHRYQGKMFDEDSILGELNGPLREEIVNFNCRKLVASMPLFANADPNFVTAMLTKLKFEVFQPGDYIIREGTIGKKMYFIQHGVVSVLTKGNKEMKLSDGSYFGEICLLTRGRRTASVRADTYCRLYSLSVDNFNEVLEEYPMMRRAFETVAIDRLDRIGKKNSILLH
Protocol: as §1, §2, §3, §4

[4] = molecular target: C-linker/CNBDs of HCN4 channels; details: read-out: binding affinity (FA), cited from earlier work
[5] = molecular target: T3, hHCN4 C-linker/CNBD (monomeric) (Homo sapiens, UniProt Q9Y3Q4); experiment: ITC, 6 μM (monomeric) 6-His tagged hHCN4 C-linker/CNBD; format: binding; details: 6 μM C-linker/CNBD
T3 construct: human HCN4 (hHCN4, residues 521–723); made in house; host or cells: E. coli BL21 (DE3)
T3 sequence (Q9Y3Q4 521-723): T1 sequence (Q9Y3Q4 521-723)
Protocol: (§5) For ITC experiments at low concentrations of the hHCN4 C-linker/CNBD the protein was concentrated to 6 μM and dialyzed in 150 mM KCl, 1 mM TCEP, 30 mM HEPES, pH 7.5 overnight at 4°C using a Slide-A-Lyzer dialysis cassette (ThermoFisher Scientific). For ITC experiments at high concentrations of the hHCN4 C-linker/CNBD the protein was concentrated to 80 μM and dialyzed in 100 mM KCl, 1 mM TCEP, 20 mM HEPES, pH 7.0 overnight at 4°C using a Slide-A-Lyzer cassette. The protein solutions were degassed prior to each experiment. ITC titrations were performed at 25°C using the ITC200 calorimeter (Malvern Instruments Inc. Westborough, MA). […] Data analysis was performed with NITPIC and SEDFAT [34, 35] using a single-site binding model for 6 μM C-linker/CNBDs and a two independent binding site model for 80 μM C-linker/CNBDs, as used by Chow et al. [36].

[6] = molecular target: T4, hHCN4 C-linker/CNBD (tetrameric) (Homo sapiens, UniProt Q9Y3Q4); experiment: ITC, 80 μM (tetrameric) hHCN4 C-linker/CNBD after MBP tag cleavage; format: binding; details: 80 μM C-linker/CNBD
T4 construct: C-linker/CNBD of hHCN4 (residues 521–723); made in house; host or cells: E. coli BL21 (DE3)
T4 sequence (Q9Y3Q4 521-723): T1 sequence (Q9Y3Q4 521-723)
Protocol: as §5

[7] = molecular target: isolated C-linker/CNBDs of HCN4 channels; details: read-out: binding affinity (SPR, ligand coupled to CM5 sensor); cited from earlier work
[8] = molecular target: isolated C-linker/CNBDs of HCN2 channels; details: read-out: binding affinity (SPR, ligand coupled to CM5 chip); cited from earlier work
[9] = molecular target: isolated C-linker/CNBDs of HCN2 channels; details: read-out: binding affinity (FA); cited from earlier work
[10] = molecular target: mHCN2-L586W C-linker/CNBDs; details: read-out: binding affinity (tryptophan fluorescence); cited from earlier work
[11] = molecular target: isolated C-linker/CNBDs of HCN2 channels; details: cGMP; read-out: binding affinity (ITC); cited from earlier work
[12] = test system: full-length HCN2 channels; details: read-out: affinity for full-length HCN2 channels, electrophysiology; cited from earlier work
[13] = molecular target: T5, mHCN2-L586W C-linker/CNBD (Mus musculus, UniProt O88703, L586W); experiment: SPR, immobilized mHCN2-L586W C-linker/CNBD on NTA chip; format: binding
T5 construct: mouse HCN2 (mHCN2, residues 443–645); made in house; host or cells: E. coli BL21 (DE3)
T5 sequence (O88703 443-645 L586W): T2 sequence (O88703 443-645) with L144W
Protocol: Error bars indicate the SEM. […] Statistical analysis was performed by using one-way ANOVA. P < 0.05 was considered statistically significant.

[14] = analyte alone (no added cAMP), 300 μM
[15] = in the presence of 100 μM cAMP, analyte 300 μM

## Nc1ncnc2c1ncn2[C@@H]1O[C@@H]2COP(=O)(O)O[C@H]3[C@@H](O)[C@H](n4cnc5c(N)ncnc54)O[C@@H]3COP(=O)(O)O[C@H]2[C@H]1O [c-di-AMP]
[1]
  effect on cyclic nucleotide modulation of the channel: antagonized the effect of cyclic nucleotides
[2]
  SPR binding response: No increase in the binding response; also recorded: did not show any cyclic dinucleotide binding
  SPR binding response in the presence of cAMP: No increase in the binding response; also recorded: did not show any cyclic dinucleotide binding
[2]; listed as c-diAMP
  SPR binding response: did not detect any binding
  SPR binding response in the presence of cAMP: did not detect any binding
[3]; [14]
  SPR binding response: No increase in the binding response
[3]; analyte alone (no added cAMP), 300 μM, listed as c-diAMP
  SPR binding response: did not detect any binding
[3]; [15]
  SPR binding response in the presence of cAMP: No increase in the binding response
[3]; in the presence of 100 μM cAMP, analyte 300 μM, listed as c-diAMP
  SPR binding response in the presence of cAMP: did not detect any binding

## Nc1nc2c(nc(SCCNC(=S)Nc3ccc4c(c3)C(=O)OC43c4ccc(O)cc4Oc4cc(O)ccc43)n2[C@@H]2O[C@@H]3COP(=O)(O)O[C@H]3[C@H]2O)c(=O)[nH]1 [8-Fluo-cGMP]
[4]; 8-Fluo-cGMP
  Kd: 0.7 µM

## Nc1nc2c(ncn2[C@@H]2O[C@@H]3COP(=O)(O)O[C@H]4[C@@H](O)[C@H](n5cnc6c(N)ncnc65)O[C@@H]4COP(=O)(O)O[C@@H]2[C@@H]3O)c(=O)[nH]1 [cGAMP]
[1]
  effect on cyclic nucleotide modulation of the channel: antagonized the effect of cyclic nucleotides
[3]
  SPR binding response: did not detect any binding
  SPR binding response in the presence of cAMP: did not detect any binding

## Nc1nc2c(ncn2[C@@H]2O[C@@H]3COP(=O)(O)O[C@H]4[C@@H](O)[C@H](n5cnc6c(=O)[nH]c(N)nc65)O[C@@H]4COP(=O)(O)O[C@H]3[C@H]2O)c(=O)[nH]1 [c-di-GMP]
[1]; 100 μM c-di-GMP, 15 μM cAMP
  effect on the cAMP-induced V1/2 shift: completely abolishing the effect of 15 μM cAMP
[1]; in the presence of 15 μM cAMP, read-out: apparent affinity for decreasing the cAMP-induced positive shift in V1/2
  IC50: 1.8 µM
[1]
  effect on cyclic nucleotide modulation of the channel: antagonized the effect of cyclic nucleotides
[5]; absence of cAMP, titrated with 300 μM ligand
  binding (ITC): no binding
[5]; presence of 100 μM cAMP in ligand and protein solutions
  binding (ITC) in the presence of cAMP: no binding
[2]
  SPR binding response: No increase in the binding response; also recorded: did not show any cyclic dinucleotide binding
  SPR binding response in the presence of cAMP: No increase in the binding response; also recorded: did not show any cyclic dinucleotide binding
[2]; listed as c-diGMP
  SPR binding response: did not detect any binding
  SPR binding response in the presence of cAMP: did not detect any binding
[6]; absence of cAMP
  binding (ITC): no binding
[6]; presence of 1 mM cAMP
  binding (ITC) in the presence of cAMP: no binding
[3]; [14]
  SPR binding response: did not detect any binding
[3]; [15]
  SPR binding response in the presence of cAMP: did not detect any binding

## NCCCCCCNc1nc2c(N)ncnc2n1[C@@H]1O[C@@H]2COP(=O)(O)O[C@H]2[C@H]1O [8-AHA-cAMP]
[7]
  Kd: 11 µM
[8]
  Kd: 10 µM

## Nc1ncnc2c1nc(SCCNC(=S)Nc1ccc(-c3c4ccc(=O)cc-4oc4cc(O)ccc34)c(C(=O)O)c1)n2C1OC2COP(=O)(O)OC2C1O (stereo not drawn) [8-Fluo-cAMP]
[9]
  Kd: 0.3 to 0.7 µM
[4]; 8-Fluo-cAMP
  Kd: 0.18 to 0.28 µM

## Nc1nc2c(ncn2[C@@H]2O[C@@H]3COP(=O)(O)O[C@H]3[C@H]2O)c(=O)[nH]1 [cGMP]
[1]; cGMP, read-out: affinity for full-length hHCN4 channels, electrophysiology
  EC50: 13.2 µM
[10]
  Kd: 62 ± 23 µM
[2]; SPR, P < 0.05 by ANOVA
  affinity for hHCN4 relative to mHCN2 domains: about two-fold higher
[2]
  SPR binding response: robust response
[2]; read-out: Kd (averaged binding affinity), SPR, averaged over different NTA chips
  Kd: 5.5 ± 0.9 µM
[2]; read-out: binding affinity (fit of representative dose response plot), SPR, single surface, Fig 3C
  Kd: 5.6 ± 0.2 µM
[11]
  Kd: 8.5 µM
[12]
  EC50: ~6 µM
[13]; averaged over different NTA chips, for cGMP only a limit could be estimated, read-out: Kd (averaged binding affinity)
  Kd: > 73.9 µM
[13]; single surface, Fig 2D, read-out: binding affinity (fit of representative dose response plot)
  Kd: ≥ 70.1 µM
[3]; read-out: Kd (averaged binding affinity), averaged over different NTA chips, 25 °C, Hill fit
  Kd: 13.4 ± 2 µM
[3]; read-out: binding affinity (fit of representative dose response plot), single surface, Fig 1E
  Kd: 12.3 ± 1.1 µM
